{"source": "patent US6100254A", "about": "“Inhibitors of protein tyrosine kinases” (Board of Regents, The University of Texas System, priority 1997, dated 2000)", "key": {"Lck (p56^lck)": {"biological_target": "T1, Lck (p56^lck) (Mus musculus, UniProt P06240)", "T1 construct": "glutathione-S-transferase (GST) (N); made in house; host or cells: E. coli", "T1 sequence (P06240 whole entry)": "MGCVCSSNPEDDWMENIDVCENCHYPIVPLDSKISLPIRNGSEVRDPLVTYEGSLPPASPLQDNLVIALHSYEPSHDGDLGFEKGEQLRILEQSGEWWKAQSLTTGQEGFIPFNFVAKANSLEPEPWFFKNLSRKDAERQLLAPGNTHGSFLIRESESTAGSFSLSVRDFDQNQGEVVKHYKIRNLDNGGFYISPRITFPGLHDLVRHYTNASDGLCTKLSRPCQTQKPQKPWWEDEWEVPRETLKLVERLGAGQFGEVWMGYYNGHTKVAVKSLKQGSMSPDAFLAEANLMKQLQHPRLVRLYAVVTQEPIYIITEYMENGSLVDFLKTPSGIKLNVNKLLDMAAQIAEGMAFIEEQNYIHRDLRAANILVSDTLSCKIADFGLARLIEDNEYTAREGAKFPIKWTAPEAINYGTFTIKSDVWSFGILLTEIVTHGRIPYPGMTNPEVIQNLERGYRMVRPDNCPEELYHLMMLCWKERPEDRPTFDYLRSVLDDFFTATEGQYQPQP", "experiment": "Lck tyrosine kinase activity, poly E4Y and 32P-ATP", "assay_type": "biochemical", "excerpt": "(§1) The genes encoding Csk, Lck, Abl, and the FGF receptor have all been cloned. The genes encoding Csk, Abl, and the FGF receptor were cloned from humans, and the genes encoding Lck were cloned from a mouse. Recombinant Csk, Lck, Abl, and the FGFr were expressed as glutathione-S-transferase fusion proteins using the pGEX expression vector and E. coli, and purified as described (Sun et al., 1995).\n(§2) Recombinant Src was expressed using the baculovirus-insect cell system and purified as published (Budde et al, 1993). Recombinant Csk, Lck, Abl, and the FGFr were expressed as glutathione-S-transferase fusion proteins using the pGEX expression vector and E. coli, and purified as described (Sun and Budde, 1995).\n(§3) The tyrosine kinase activity of Src, Lck (p56^lck), Csk (C-Src kinase), Abl (Bcr-Abl catalytic domain), and the FGFr (fibroblast growth factor receptor catalytic domain), was determined using poly E4 Y and ^32 P-ATP."}, "Yes": {"biological_target": "Yes (Homo sapiens, UniProt P07947)", "sequence (P07947 whole entry, species assumed)": "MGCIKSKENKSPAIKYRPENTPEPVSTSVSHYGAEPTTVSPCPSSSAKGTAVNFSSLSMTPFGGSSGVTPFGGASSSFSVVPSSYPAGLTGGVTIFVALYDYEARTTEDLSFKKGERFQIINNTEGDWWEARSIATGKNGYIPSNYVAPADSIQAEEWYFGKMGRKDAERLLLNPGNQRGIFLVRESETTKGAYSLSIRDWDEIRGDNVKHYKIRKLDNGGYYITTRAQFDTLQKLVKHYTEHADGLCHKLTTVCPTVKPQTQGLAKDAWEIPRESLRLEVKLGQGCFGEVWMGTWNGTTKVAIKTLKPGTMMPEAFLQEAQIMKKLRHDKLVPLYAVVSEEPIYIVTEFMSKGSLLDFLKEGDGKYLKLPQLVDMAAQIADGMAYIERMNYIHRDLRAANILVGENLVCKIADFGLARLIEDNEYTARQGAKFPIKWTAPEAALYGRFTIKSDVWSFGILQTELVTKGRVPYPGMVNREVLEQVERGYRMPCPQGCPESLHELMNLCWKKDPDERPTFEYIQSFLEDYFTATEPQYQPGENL", "experiment": "Enzyme panel: Yes", "assay_type": "biochemical", "conditions": "apparent value against variable poly E4Y"}, "protein kinase A (PKA)": {"biological_target": "protein kinase A (PKA) (Homo sapiens, UniProt P17612)", "experiment": "Enzyme panel: protein kinase A", "assay_type": "biochemical"}, "[1]": {"tested_on": "AFB-13 normal human fibroblasts", "experiment": "Growth of AFB-13 cells, control for cellular toxicity", "assay_type": "cell-based", "procedure": "(§4) For these assays 2×10^4 cells are plated in 24 well multiwell tissue culture dishes, in 1 ml of DME/F12 media supplemented with 5% fetal bovine serum. After 24 h, media is replaced with fresh media containing the concentration of inhibitor to be tested, or no inhibitor as a control. Cells are counted 1, 3, and 5 days subsequent to addition of inhibitor. For the day 5 counts, media with fresh inhibitor is used to replace spent media after day 3. […] For counting viable cells, cultures are trypsinized, stained with trypan blue, and cell number determined by counting under light microscopy with the use of a hemacytometer. Benzodiazepine derivatives were tested at their maximally soluble concentrations in 0.1% DMSO diluted with tissue culture medium, and serial dilutions were made thereof. Every concentration tested was performed in triplicate, in identical wells under identical assay conditions."}, "[2]": {"tested_on": "HT-29 colon adenocarcinoma cells", "experiment": "Growth of HT-29 cells, viable cell count", "assay_type": "cell-based, human", "conditions": "viable cell count 5 days after plating", "procedure": "as §4"}, "Csk (C-Src kinase)": {"biological_target": "T2, Csk (C-Src kinase) (Homo sapiens, UniProt P41240)", "T2 construct": "glutathione-S-transferase (GST) (N); made in house; host or cells: E. coli", "T2 sequence (P41240 whole entry)": "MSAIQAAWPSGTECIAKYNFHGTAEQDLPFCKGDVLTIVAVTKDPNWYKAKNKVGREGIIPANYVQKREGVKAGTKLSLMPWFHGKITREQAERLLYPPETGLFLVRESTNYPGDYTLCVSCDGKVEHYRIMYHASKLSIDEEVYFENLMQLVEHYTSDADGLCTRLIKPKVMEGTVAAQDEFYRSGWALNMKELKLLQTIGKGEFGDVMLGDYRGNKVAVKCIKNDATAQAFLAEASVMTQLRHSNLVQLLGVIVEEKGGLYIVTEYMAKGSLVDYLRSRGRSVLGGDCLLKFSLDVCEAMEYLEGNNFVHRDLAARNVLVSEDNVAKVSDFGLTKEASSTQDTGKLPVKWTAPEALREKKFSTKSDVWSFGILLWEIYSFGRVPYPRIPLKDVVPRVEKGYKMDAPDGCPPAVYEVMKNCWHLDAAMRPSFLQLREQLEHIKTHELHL", "experiment": "Csk tyrosine kinase activity, poly E4Y and 32P-ATP", "assay_type": "biochemical", "excerpt": "as §1, §2, §3"}, "Src": {"biological_target": "T3, Src (Homo sapiens, UniProt P12931)", "T3 construct": "made in house; host or cells: baculovirus-insect cell system", "T3 sequence (P12931 whole entry, species assumed)": "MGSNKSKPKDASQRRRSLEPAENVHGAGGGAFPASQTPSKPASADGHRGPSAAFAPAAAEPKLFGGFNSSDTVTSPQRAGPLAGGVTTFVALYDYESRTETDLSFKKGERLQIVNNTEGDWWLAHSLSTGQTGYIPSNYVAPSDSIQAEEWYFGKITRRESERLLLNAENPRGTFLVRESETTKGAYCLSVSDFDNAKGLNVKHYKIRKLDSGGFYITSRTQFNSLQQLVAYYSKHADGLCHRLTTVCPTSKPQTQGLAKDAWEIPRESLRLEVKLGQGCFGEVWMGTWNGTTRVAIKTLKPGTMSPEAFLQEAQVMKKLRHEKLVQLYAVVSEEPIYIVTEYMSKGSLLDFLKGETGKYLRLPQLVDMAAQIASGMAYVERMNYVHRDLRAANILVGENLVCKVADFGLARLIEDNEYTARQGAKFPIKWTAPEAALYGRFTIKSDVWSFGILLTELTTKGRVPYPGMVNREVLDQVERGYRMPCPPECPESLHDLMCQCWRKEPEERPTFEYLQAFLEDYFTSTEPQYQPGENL", "experiment": "Src tyrosine kinase activity, poly E4Y and 32P-ATP", "assay_type": "biochemical", "procedure": "The compounds within the library were screened at a concentration of 100 μM using the following assay procedure. A 10 μL aliquot of poly(Glu:Tyr, 4:1) to final concentration of 200 μg/mL, 20 μL of benzodiazepine to be tested, 10 μL of purified Src and 10 μL of [gamma-^32 P]-ATP-MgCl2 cocktail (final concentration of 0.2 mM ATP; specific activity of 600 dpm/pmol, and 6 mM MgCl2) were mixed and incubated in 0.5 mL test tubes at ambient temperature. After 30 min, a 35 μL aliquot was spotted onto a 1×1 inch 3 MM filter paper and dropped into a 5% TCA bath at 60° C. The filter papers were washed 3 times with 5% TCA and air dried. The filter papers were then placed into a vial, 3 mL scintillation cocktail added, and analyzed by liquid scintillation counting.\nas §3"}, "[3]": {"tested_on": "HT-29 colon adenocarcinoma cells", "experiment": "Anchorage-independent growth, soft agar colony formation", "assay_type": "cell-based, human", "procedure": "Soft agar colony formation is used to determine anchorage independent growth, an in vitro parameter which correlates well with tumorigenicity of HT 29 cells. (AFB-13 cells are unable to form soft agar colonies, a characteristic of normal cells). These assays are performed in 6 well ([…]) multiwell tissue culture dishes. The wells are underlayed with 1% low melting agarose in complete growth media, and refrigerated for 15 min. 1×10^3 HT 29 cells are then added to the wells in complete media in 0.5% low melting agarose. […] After a 24 h incubation period, 0.5 mL of media containing compound to be tested (or media alone as a control) is added to the dish. During the assay, media with or without the test compound is replenished every 3 days. Colonies estimated to contain >100 cells are counted after 14 days. For compounds that induce growth inhibition, the assay is continued to 28 days to assure that differences in colony forming ability were not due to altered growth rate of cells. For initial screening, assays are performed in duplicate for each compound to be tested, due to the large amount of inhibitor required for the length of the study."}}}
{"compound": "O=C1[C@H](Cc2ccc(O)cc2)N=C(c2ccc(O)cc2)c2cc(Cl)ccc2N1Cc1ccc(-c2ccccc2)cc1", "note": "[L-Tyr,BnzPh, 7-chloro-1,3-dihydro-1-(-4-biphenylmethyl)-3-(-4-hydroxyphenylmethyl)-5-(4-hydroxyphenyl)-(2H)1,4-benzodiazepin-2-one]", "values": [{"measurement": "IC50", "setting": "Lck (p56^lck)", "result": 505, "unit": "µM"}, {"measurement": "Ki", "setting": "Yes", "result": 50, "unit": "µM"}, {"measurement": "IC50", "setting": "protein kinase A (PKA)", "result": 450, "unit": "µM"}, {"measurement": "Ki", "setting": "protein kinase A (PKA); apparent value", "result": 104, "unit": "µM"}, {"measurement": "activity at 3 µM", "setting": "[1]; Homo sapiens, Fibroblast, 120 h, 3 μM, viable cell count 5 days after plating", "result": "89 ± 6", "unit": "%"}, {"measurement": "activity at 14 µM", "setting": "[1]; Homo sapiens, Fibroblast, 120 h, 14 μM, viable cell count 5 days after plating", "result": "97 ± 5", "unit": "%"}, {"measurement": "activity at 28 µM", "setting": "[1]; Homo sapiens, Fibroblast, 120 h, 28 μM, viable cell count 5 days after plating", "result": "90 ± 4", "unit": "%"}, {"measurement": "inhibition of growth of AFB-13 normal fibroblasts", "setting": "[1]; same concentrations (up to 28 μM)", "result": "Less than 10%"}, {"measurement": "HT-29 Growth", "setting": "[2]; 28 μM", "result": "cytotoxic"}, {"measurement": "activity at 3 µM", "setting": "[2]; Homo sapiens, HT-29, 120 h, 3 μM", "result": "100 ± 10", "unit": "%"}, {"measurement": "activity at 14 µM", "setting": "[2]; Homo sapiens, HT-29, 120 h, 14 μM", "result": "98 ± 9", "unit": "%"}, {"measurement": "IC50", "setting": "Csk (C-Src kinase)", "result": 136, "unit": "µM"}, {"measurement": "Ki", "setting": "Csk (C-Src kinase); apparent value against variable poly E4Y", "result": 63, "unit": "µM"}, {"measurement": "IC50", "setting": "Src", "result": 73, "unit": "µM"}, {"measurement": "Ki", "setting": "Src; Table 10, benzodiazepines as inhibitors of Src", "result": 20, "unit": "µM"}, {"measurement": "mode of inhibition", "setting": "Src; against variable ATP or variable poly E4Y", "result": "mixed"}, {"measurement": "inhibition of colony formation of HT-29 colon adenocarcinoma cells", "setting": "[3]; 28 μM", "result": "complete inhibition"}, {"measurement": "activity at 3 µM", "setting": "[3]; Homo sapiens, HT-29, 336 h, 3 μM, colonies ≥100 cells 14 days after plating", "result": 29, "unit": "%"}, {"measurement": "activity at 14 µM", "setting": "[3]; Homo sapiens, HT-29, 336 h, 14 μM, colonies ≥100 cells 14 days after plating", "result": 8, "unit": "%"}, {"measurement": "activity at 28 µM", "setting": "[3]; Homo sapiens, HT-29, 336 h, 28 μM, colonies ≥100 cells 14 days after plating", "result": 0, "unit": "%"}]}
